The record followed here is US20220363689A1, “INHIBITOR OF BTK AND MUTANTS THEREOF” (Newave Pharmaceutical Inc., priority 2019, published 2022).

The target in series [1] is T1, WT BTK (Homo sapiens, UniProt Q06187). The experiment in a line: In vitro dialysis assay (irreversibility assay), WT BTK. It is filed as biochemical. The conditions noted are these: reversible or irreversible/covalent inhibition after 24 h dialysis. In outline:
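Compound-BTK complex was dialyzed 24 hr against […] (cumulative factor >160,000×). Residual activity was then […] and 1 mM substrate peptide and compared with non-dialyzed samples. Buffer: 100 mM HEPES pH 7.5, 5 mM MgCl2, 1 mM DTT, BSA, Triton X-100.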

For series [2], the target named is T1, WT BTK. Briefly: Caliper-based kinase assay, WT BTK. The conditions noted are these: 0.5 nM enzyme, ATP 16 μM, room temperature 3 h; read-out: WT BTK IC50 (nM) (irreversible inhibition). It is filed as biochemical. As for the experimental part: A Caliper-based kinase assay (Caliper Life Sciences, Hopkinton, Mass.) was used to measure inhibition of WT and […] Btk kinase activity of a compound of the present disclosure. […] The reaction was then terminated with EDTA, final concentration 20 mM and the phosphorylated reaction product was quantified on a Caliper Desktop Profiler (Caliper LabChip 3000).

The target in series [3] is BTK (Homo sapiens, UniProt Q06187). The experiment in a line: Caliper-based kinase assay, Cys-containing kinase panel: BTK. The series is classed as biochemical. The conditions noted are these: for IC50: Cys-481 homologous kinase panel. From the text:
A Caliper-based kinase assay (Caliper Life Sciences, Hopkinton, Mass.) was used to measure inhibition of kinase activity of compounds of the present disclosure.

Series [4] concerns human primary hepatocyte. Briefly: Human primary hepatocyte cytotoxicity (ATPlite). The conditions noted are these: about 72 hours incubation. The series is classed as cell-based. Here is the method:
Cell viability assay is assayed by PerkinElmer ATPlite™ Luminescence Assay System. Briefly, the human primary hepatocyte are plated at a density of about 1×10^4 cells per well in Costar 96-well plates, and are incubated with different concentrations of compounds for about 72 hours in medium supplemented with 5% FBS. One lyophilized substrate solution vial is then reconstituted by adding 5 mL of substrate buffer solution, and is agitated gently until the solution is homogeneous. About 50 μL of mammalian cell lysis solution is added to 100 μL of cell suspension per well of a microplate, and the plate is shaken for about five minutes in an orbital shaker at −700 rpm. This procedure is used to lyse the cells and to stabilize the ATP. Next, 50 μL substrate solution is added to the wells and microplate is shaken for five minutes in an orbital shaker at −700 rpm. Finally, the luminescence is measured by a PerkinElmer TopCount® Microplate Scintillation Counter. Such assays, carried out with a range of doses of test compounds, allow the determination of the cellular anti-antiproliferative IC50 of the compounds of the present invention.
Background: In ATP-based viability assays light output follows the ATP content of the culture.

Series [5] in a line: Mice PK study. The series is classed as in vivo. The conditions noted are these: plasma, CD-1 mouse, po, 10 mg/kg; for half-life: read-out: t ½ (converted). Here is the method:
The pharmacokinetics of compounds were evaluated in CD-1 mouse via Intravenous and Oral Administration. The IV dose was administered as a slow bolus in the Jugular vein, and oral doses were administered by gavage. The formulation for IV dosing is 5% DMSO in 20% HPBCD in water, and the PO formulation is 2.5% DMSO, 10% EtOH, 20% Cremphor EL, 67.5% D5W. The PK time point for the IV arm was 5, 15, 30 min, 1, 2, 4, 6, 8, 12, 24 hours post dose, and for PO arm was 15, 30 min, 1, 2, 4, 6, 8, 12, 24 hours post dose. Approximately 0.03 mL blood was collected at each time point. Blood of each sample was transferred into plastic micro centrifuge tubes containing EDTA-K2 and plasma was collected within 15 min by centrifugation at 4000 g for 5 minutes in a 4° C. centrifuge. Plasma samples were stored in polypropylene tubes. The samples were stored in a freezer at −75±15° C. prior to analysis. Concentrations of compounds in the plasma samples were analyzed using a LC-MS/MS method. WinNonlin (Phoenix™, version 6.1) or other similar software was used for pharmacokinetic calculations. The following pharmacokinetic parameters were calculated, whenever possible from the plasma concentration versus time data: IV administration: C0, CL, Vd, T1/2, AUCinf, AUClast, MRT, Number of Points for Regression; PO administration: Cmax, Tmax, T1/2, AUCinf, AUClast, F %, Number of Points for Regression. The pharmacokinetic data was described using descriptive statistics such as mean, standard deviation. Additional pharmacokinetic or statistical analysis was performed at the discretion of the contributing scientist, and was documented in the data summary. For comparison purpose, the PK results of oral dosing of po, 25 mg/kg of Acalbrutinib, a FDA approved BTK inhibitor, were obtained using the same methods and shown in the Table below.

The test system of series [6] is CD69 surface expression in primary human B cells. Briefly: Inhibition of CD69 surface expression in primary human B cells. The series is classed as cell-based. The conditions noted are these: B-cell; 1 h pre-incubation, anti-human IgM stimulation 19 hr. Here is the method: Primary human B cells (CD20+, purified by negative selection) were obtained from StemCell Technologies. Prior to experiment, the cells were thawed and washed two times with RPMI growth media supplemented with 10% FBS. The cells were seeded into 24 well plate at a density of 4×10^5 cells/per a well in a total volume of 500 uL. 6 hr after plating, serial dilutions of NW-1-96 were added. Control wells received DMSO only (0.1%). After 1 h pre-incubation with compound, the cells were stimulated for 19 hr with goat anti-human IgM F(ab′)2 (10 μg/mL; ThermoFisher). After stimulation, the cells were fixed by addition of paraformaldehyde to a final concentration of 4% and incubated for 20 min at room temperature. Fixed cells were collected into Eppendorf tubes, centrifuged at 1,000×g and washed three times with 50 mM Tris pH8.0, 100 mM NaCl. After washes, the cells were re-suspended in 100 uL of 50 mM Tris pH8.0, 100 mM NaCl, 0.1% BSA supplemented with 5 ug/mL of FITC-conjugated anti-CD69 antibody (ThermoFisher) and incubated at room temperature for 2 hr. The cells were next washed 3 times with 10 volumes of 50 mM Tris pH8.0, 100 mM NaCl, 0.1% BSA and re-suspended in 150 ul of the same buffer. […] CD69 staining was detected on Synergy Neo2 fluorescent plate reader: […].

What is called IC50 is the concentration that gives 50% inhibition. The term AUC denotes the area under the concentration-time curve, a measure of exposure. The low end stands for less exposure, the high end for more exposure.

T1 sequence (Q06187 whole entry): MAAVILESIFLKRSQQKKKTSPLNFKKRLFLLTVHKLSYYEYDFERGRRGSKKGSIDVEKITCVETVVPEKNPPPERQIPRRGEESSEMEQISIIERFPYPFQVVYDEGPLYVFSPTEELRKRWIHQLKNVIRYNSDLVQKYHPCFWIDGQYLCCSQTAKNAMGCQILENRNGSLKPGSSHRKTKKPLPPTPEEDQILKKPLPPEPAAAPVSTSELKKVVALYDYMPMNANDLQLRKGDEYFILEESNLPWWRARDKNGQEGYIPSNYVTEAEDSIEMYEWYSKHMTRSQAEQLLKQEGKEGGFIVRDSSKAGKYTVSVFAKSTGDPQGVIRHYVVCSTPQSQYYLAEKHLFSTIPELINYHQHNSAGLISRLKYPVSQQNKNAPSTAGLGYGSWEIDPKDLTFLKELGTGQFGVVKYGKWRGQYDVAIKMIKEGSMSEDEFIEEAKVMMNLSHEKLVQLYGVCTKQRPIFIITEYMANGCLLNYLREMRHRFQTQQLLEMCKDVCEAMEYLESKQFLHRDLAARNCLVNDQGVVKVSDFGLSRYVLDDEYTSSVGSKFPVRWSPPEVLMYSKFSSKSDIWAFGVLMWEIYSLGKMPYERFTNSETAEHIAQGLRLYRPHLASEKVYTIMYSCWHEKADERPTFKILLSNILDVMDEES
BTK, sequence (Q06187 whole entry): as above

In the case of `C=CC(=O)Nc1cc(Nc2nc(-c3ccnc(N4CCn5c(cc6c5CC(C)(C)C6)C4=O)c3CO)cn(C)c2=O)ccc1N1CCN(C2CCOCC2)C[C@H]1C(F)(F)F` [Example 48-S, N-(5-[[6-(2-[4,4-dimethyl-9-oxo-1,10-diazatricyclo[6.4.0.0^[2,6]]dodeca-2(6),7-dien-10-yl]-3-(hydroxymethyl)pyridin-4-yl)-4-methyl-3-oxopyrazin-2-yl]amino]-2-[(2S)-4-(oxan-4-yl)-2-(trifluoromethyl)piperazin-1-yl]phenyl)prop-2-enamide], the “Conclusion (WT BTK)” value in series [1] is reported as “Irreversible/covalent inhibition”. For the same compound, the values for the IC50 in series [2], in series [3] and in series [4] were 0.08 nM, 0.1 nM and 40900 nM, respectively. Also, the AUC in series [5] was 11600 ng·h/mL. For the same compound, the half-life in series [5] was 1 h.
For `C=CC(=O)Nc1cc(Nc2nc(-c3ccnc(N4CCc5c(sc6c5CCCC6)C4=O)c3CO)cn(C)c2=O)ccc1N1CCN(C2CCOCC2)C[C@H]1C(F)(F)F` [Example 55-S, N-[5-([6-[3-(hydroxymethyl)-2-[6-oxo-8-thia-5-azatricyclo[7.4.0.0^[2,7]]trideca-1(9), 2(7)-dien-5-yl]pyridin-4-yl]-4-methyl-3-oxopyrazin-2-yl]amino)-2-[(2S)-4-(oxan-4-yl)-2-(trifluoromethyl)piperazin-1-yl]phenyl]prop-2-enamide], in series [1], the “Conclusion (WT BTK)” value is recorded as “Irreversible/covalent inhibition”. For the same compound, the IC50 is 0.43 nM in series [2], 0.25 nM in series [3], 9.4 nM in series [6] and above 100000 nM in series [4]. Moreover, the “Selectivity among kinases that contain a Cys homologous to Cys-481 in BTK” value in series [3] (BTK versus BMX, TEC, TXK, BLK, HER4, EGFR, HER2) is given as “excellent selectivity”. The compound also had an AUC in series [5] of 74800 ng·h/mL. For the same compound, the half-life in series [5] is 1.7 h.
In the case of `CC(C)(/C=C(\C#N)C(=O)N1CCC[C@@H](n2nc(-c3ccc(Oc4ccccc4)cc3F)c3c(N)ncnc32)C1)N1CCN(C2COC2)CC1` [PRN-1008, reference compound], the IC50 is 109 nM in series [6] and 23500 nM in series [4].
